Experimental data as given in US8871934B2, “Fluorene compound and pharmaceutical use thereof” (Japan Tobacco Inc., priority 2008, dated 2014).
Like-named read-outs stand apart in the source and are kept apart here.

Molecular target: human PDHK2 (hPDHK2) (Homo sapiens (Human), UniProt Q15119)
Assay: Inhibitory action of PDHK activity in vitro (kinase reaction, residual PDH activity measured)
Type: biochemical
[1] = PDHK inhibitory activity, class symbol of IC50
[2] = read-out: PDHK inhibitory activity IC50

Row | Structure (SMILES) | IC50 [1] [nM] | IC50 [2] [nM]
1 | O=C1NCCN1CCOc1ccc2c(c1)C(O)(C(F)(F)F)c1ccccc1-2 (stereo not shown) [compound 469] | 100 to 1000 | 193
2 | O=C1OCCCN1CCOc1ccc2c(c1)C(O)(C(F)(F)F)c1ccccc1-2 (stereo not shown) [compound 470] | 100 to 1000 | 168
3 | CN(CCOc1cc(-c2cnn(C)c2)c2c(c1)C(O)(C(F)(F)F)c1ccccc1-2)C(=O)C(C)(C)C (stereo not shown) [compound 471] | < 100 | 26
4 | COC(=O)c1cc(Br)c2c(c1)C(O)(C(F)(F)F)c1ccccc1-2 (stereo not shown) [compound 472] | 100 to 1000 | 184
5 | O=C(c1cc(-c2cnn(CCO)c2)c2c(c1)C(O)(C(F)(F)F)c1ccccc1-2)N1CCCC1 (stereo not shown) [compound 476] | < 100 | 53
6 | O=C(O)CCCOc1cc(Cl)c2c(c1)C(O)(C(F)(F)F)c1ccccc1-2 (stereo not shown) [compound 478] | 100 to 1000 | 433
7 | COC(=O)COc1cc(Cl)c2c(c1)C(O)(C(F)(F)F)c1ccccc1-2 (stereo not shown) [compound 480] | 100 to 1000 | 553
8 | O=C(O)CCCOc1cc(-c2cnn(CCO)c2)c2c(c1)C(O)(C(F)(F)F)c1ccccc1-2 (stereo not shown) [compound 482] | < 100 | 40
9 | O=C(O)Cn1cc(-c2cccc3c2-c2ccccc2C3(O)C(F)(F)F)cn1 (stereo not shown) [compound 483] | 100 to 1000 | 542
10 | O=C1CCCN1CCOc1cc(-c2cnn(CCO)c2)c2c(c1)C(O)(C(F)(F)F)c1ccccc1-2 (stereo not shown) [compound 484] | < 100 | 24
11 | O=C(O)CCn1cc(-c2cccc3c2-c2ccccc2C3(O)C(F)(F)F)cn1 (stereo not shown) [compound 485] | 100 to 1000 | 117
12 | NC(=O)CCn1cc(-c2cccc3c2-c2ccccc2C3(O)C(F)(F)F)cn1 (stereo not shown) [compound 486] | < 100 | 55
13 | CNC(=O)CCn1cc(-c2cccc3c2-c2ccccc2C3(O)C(F)(F)F)cn1 (stereo not shown) [compound 487] | < 100 | 64
14 | CN(C)C(=O)CCn1cc(-c2cccc3c2-c2ccccc2C3(O)C(F)(F)F)cn1 (stereo not shown) [compound 488] | < 100 | 52
15 | CN(CCOc1cc(-c2cnn(C)c2)c2c(c1)C(O)(C(F)(F)F)c1ccccc1-2)C(=O)C(C)(C)CO (stereo not shown) [compound 489] | < 100 | 22
16 | O=C1COCCN1CCOc1ccc2c(c1)C(O)(C(F)(F)F)c1ccccc1-2 (stereo not shown) [compound 490] | 100 to 1000 | 223
17 | O=C1CCCN1CCOc1cc(-c2cn[nH]c2)c2c(c1)C(O)(C(F)(F)F)c1ccccc1-2 (stereo not shown) [compound 491] | < 100 | 20
18 | Cc1cc(-c2cnn(CCO)c2)c2c(c1)C(O)(C(F)(F)F)c1ccccc1-2 (stereo not shown) [compound 492] | < 100 | 40
19 | NC(=O)Cn1cc(-c2cccc3c2-c2ccccc2C3(O)C(F)(F)F)cn1 (stereo not shown) [compound 493] | < 100 | 39
20 | CNC(=O)Cn1cc(-c2cccc3c2-c2ccccc2C3(O)C(F)(F)F)cn1 (stereo not shown) [compound 494] | < 100 | 44
21 | CN(C)C(=O)Cn1cc(-c2cccc3c2-c2ccccc2C3(O)C(F)(F)F)cn1 (stereo not shown) [compound 495] | 100 to 1000 | 119
22 | O=C(COc1cc(-c2cnn(CCO)c2)c2c(c1)C(O)(C(F)(F)F)c1ccccc1-2)N1CCC1 (stereo not shown) [compound 496] | < 100 | 23
23 | O=C(COc1cc(-c2cnn(CCO)c2)c2c(c1)C(O)(C(F)(F)F)c1ccccc1-2)N1CC(O)C1 (stereo not shown) [compound 497] | < 100 | 31
24 | O=C(O)CCCOc1cc(-c2cn[nH]c2)c2c(c1)C(O)(C(F)(F)F)c1ccccc1-2 (stereo not shown) [compound 498] | < 100 | 47

Row | Structure (SMILES) | IC50 [1] [nM] | IC50 [2] [nM]
25 | CC(=O)N(C)C[C@@H](O)COc1cc(-c2cnn(C)c2)c2c(c1)C(O)(C(F)(F)F)c1ccccc1-2 (stereo partly shown) [compound 499] | < 100 | 39
26 | CC(=O)N(C)C[C@H](O)COc1cc(-c2cnn(C)c2)c2c(c1)C(O)(C(F)(F)F)c1ccccc1-2 (stereo partly shown) [compound 500] | < 100 | 31
27 | CN(CCOc1cc(-c2cnn(C)c2)c2c(c1)C(O)(C(F)(F)F)c1ccccc1-2)C(=O)C(C)(C)O (stereo not shown) [compound 501] | < 100 | 32
28 | NC(=O)c1cc(OCCN2CCCC2=O)cc2c1-c1ccccc1C2(O)C(F)(F)F (stereo not shown) [compound 502] | < 100 | 48
29 | NC(=O)COc1cc(-c2cn[nH]c2)c2c(c1)C(O)(C(F)(F)F)c1ccccc1-2 (stereo not shown) [compound 503] | < 100 | 45
30 | OCCn1cc(-c2cc(F)cc3c2-c2ccccc2C3(O)C(F)(F)F)cn1 (stereo not shown) [compound 505] | < 100 | 46
31 | NC(=O)Cn1cc(-c2cc(Cl)cc3c2-c2ccccc2C3(O)C(F)(F)F)cn1 (stereo not shown) [compound 506] | < 100 | 30
32 | Cc1cc(-c2cnn(CC(N)=O)c2)c2c(c1)C(O)(C(F)(F)F)c1ccccc1-2 (stereo not shown) [compound 507] | < 100 | 26
33 | NC(=O)Cn1cc(-c2cc(OCCC34CC5CC(CC(C5)C3)C4)cc3c2-c2ccccc2C3(O)C(F)(F)F)cn1 (stereo not shown) [compound 508] | < 100 | 48
34 | OCCn1cc(-c2cc(OCCC34CC5CC(CC(C5)C3)C4)cc3c2-c2ccccc2C3(O)C(F)(F)F)cn1 (stereo not shown) [compound 509] | < 100 | 51
35 | O=C(O)CCCOc1cc(-c2cncnc2)c2c(c1)C(O)(C(F)(F)F)c1ccccc1-2 (stereo not shown) [compound 510] | < 100 | 62
36 | CCNC(=O)Cn1cc(-c2cccc3c2-c2ccccc2C3(O)C(F)(F)F)cn1 (stereo not shown) [compound 511] | < 100 | 56
37 | CNC(=O)Cn1cc(-c2cc(C)cc3c2-c2ccccc2C3(O)C(F)(F)F)cn1 (stereo not shown) [compound 512] | < 100 | 38
38 | CNC(=O)Cn1cc(-c2cc(Cl)cc3c2-c2ccccc2C3(O)C(F)(F)F)cn1 (stereo not shown) [compound 513] | < 100 | 32
39 | CC(C)NC(=O)Cn1cc(-c2cccc3c2-c2ccccc2C3(O)C(F)(F)F)cn1 (stereo not shown) [compound 514] | < 100 | 58
40 | CNC(=O)Cn1cc(-c2cc(F)cc3c2-c2ccccc2C3(O)C(F)(F)F)cn1 (stereo not shown) [compound 515] | < 100 | 38
41 | O=C(O)Cn1cc(-c2cc(Cl)c3c(c2)C(O)(C(F)(F)F)c2ccccc2-3)cn1 (stereo not shown) [compound 516] | 100 to 1000 | 110
42 | O=C(O)CCn1cc(-c2cc(Cl)c3c(c2)C(O)(C(F)(F)F)c2ccccc2-3)cn1 (stereo not shown) [compound 517] | < 100 | 57
43 | Cn1cc(-c2cc(C(N)=O)c3c(c2)C(O)(C(F)(F)F)c2ccccc2-3)cn1 (stereo not shown) [compound 518] | < 100 | 54
44 | Cc1cc(Cl)c2c(c1)C(O)(C(F)(F)F)c1ccccc1-2 (stereo not shown) [compound 519] | 100 to 1000 | 418
45 | NC(=O)CCn1cc(-c2cc(Cl)c3c(c2)C(O)(C(F)(F)F)c2ccccc2-3)cn1 (stereo not shown) [compound 521] | < 100 | 36
46 | OC1(C(F)(F)F)c2ccccc2-c2c(-c3cnn(C45CC6CC(CC(C6)C4)C5)c3)cccc21 (stereo not shown) [compound 522] | < 100 | 61
47 | CC(C)(C)n1cc(-c2cccc3c2-c2ccccc2C3(O)C(F)(F)F)cn1 (stereo not shown) [compound 523] | < 100 | 48
